Results as given in US12630548B2, “Azetidine derivatives for the treatment of integrin associated diseases” (The University of Nottingham, priority 2020, dated 2026).
Like-named read-outs stand apart in the source and are kept apart here.

How the values were obtained:
[1] = ChromlogD (lipophilicity); assay type: physicochemical; details: pH 7.4
Excerpt: ChromlogD is a measure of lipophilicity of a compound (R. J. Young et al. Drug Discovery Today 2011, […]). Lipophilicity is a key physicochemical property that plays a crucial role in determining ADMET (absorption, distribution, metabolism, excretion, and toxicity) properties and the overall suitability of drug candidates.

[2] = biological target: ανβ6 (Homo sapiens, UniProt P06756+P18564); assay: Cell adhesion assay, αvβ6 integrin; assay type: cell-based
Procedure: The assays were performed as described in the literature (P. A. Procopiou, N. A. Anderson, J. Barrett, T. N. Barrett, M. H. J. Crawford, B. J. Fallon, A. P. Hancock, J. Le, S. Lemma, R. P. Marshall, J. Morrell, J. M. Pritchard, J. E. Rowedder, P. Saklatvala, R. J. Slack, S. L. Sollis, C. J. Suckling, L. R. Thorp, G. Vitulli, et al., J. Med. Chem. 2018, 61, 8417-8443; S. B. Ludbrook, S. T. Barry, C. J. Delves, C. M. T. Horgan, Biochem. J. 2003, 369, 311-318).

[3] = biological target: hERG (Homo sapiens, UniProt Q12809); assay: hERG Q-patch; assay type: cell-based; details: read-out: hERG Q-patch (pIC50) (converted)
Excerpt: The human ether-a-go-go related gene (hERG) encodes the inward rectifying voltage gated potassium channel in the heart (IKr) that is involved in cardiac repolarisation. Inhibition of the hERG current causes QT interval prolongation resulting in potentially fatal ventricular tachyarrhythmia called Torsade de Pointes. A number of drugs have been withdrawn from late stage clinical trials due to these cardiotoxic effects, therefore it is important to identify inhibitors early in drug discovery (W. Haverkamp et al. Eur Heart J., 2000, 21(15), 1216). A low potency in this screen is advantageous for compound development.

[4] = cell adhesion data, read-out: ανβ6 IC50

Chain of ανβ6 (P06756 31-889 limits assumed): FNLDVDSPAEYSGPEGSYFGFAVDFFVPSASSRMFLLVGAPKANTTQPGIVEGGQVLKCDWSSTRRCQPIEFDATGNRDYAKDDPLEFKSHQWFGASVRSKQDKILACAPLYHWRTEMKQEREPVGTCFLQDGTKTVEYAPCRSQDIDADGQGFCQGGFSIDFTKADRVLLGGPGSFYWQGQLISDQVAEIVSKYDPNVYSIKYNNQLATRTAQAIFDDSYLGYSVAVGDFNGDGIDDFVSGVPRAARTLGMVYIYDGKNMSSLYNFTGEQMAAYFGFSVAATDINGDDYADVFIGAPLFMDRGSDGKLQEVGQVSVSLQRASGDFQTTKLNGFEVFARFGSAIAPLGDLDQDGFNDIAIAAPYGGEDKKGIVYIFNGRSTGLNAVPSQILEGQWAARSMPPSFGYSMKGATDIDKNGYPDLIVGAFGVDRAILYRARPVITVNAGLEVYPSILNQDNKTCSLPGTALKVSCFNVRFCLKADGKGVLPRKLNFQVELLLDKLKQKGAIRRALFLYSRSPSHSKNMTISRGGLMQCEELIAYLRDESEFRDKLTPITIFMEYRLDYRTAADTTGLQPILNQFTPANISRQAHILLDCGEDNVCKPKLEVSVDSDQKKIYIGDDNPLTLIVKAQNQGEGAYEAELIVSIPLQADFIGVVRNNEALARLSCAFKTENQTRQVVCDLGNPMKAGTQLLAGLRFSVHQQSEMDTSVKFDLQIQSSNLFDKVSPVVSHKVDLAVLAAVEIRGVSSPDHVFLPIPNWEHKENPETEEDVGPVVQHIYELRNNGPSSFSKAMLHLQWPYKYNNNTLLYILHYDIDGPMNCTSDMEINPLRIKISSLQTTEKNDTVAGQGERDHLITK
Chain of ανβ6 (P06756 891-1048 limits assumed): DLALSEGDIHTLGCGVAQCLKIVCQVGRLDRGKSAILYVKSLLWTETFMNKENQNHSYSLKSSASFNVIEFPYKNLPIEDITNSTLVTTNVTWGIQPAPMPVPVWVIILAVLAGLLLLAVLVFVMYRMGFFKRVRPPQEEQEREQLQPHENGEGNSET
Chain of ανβ6 (P18564 22-788): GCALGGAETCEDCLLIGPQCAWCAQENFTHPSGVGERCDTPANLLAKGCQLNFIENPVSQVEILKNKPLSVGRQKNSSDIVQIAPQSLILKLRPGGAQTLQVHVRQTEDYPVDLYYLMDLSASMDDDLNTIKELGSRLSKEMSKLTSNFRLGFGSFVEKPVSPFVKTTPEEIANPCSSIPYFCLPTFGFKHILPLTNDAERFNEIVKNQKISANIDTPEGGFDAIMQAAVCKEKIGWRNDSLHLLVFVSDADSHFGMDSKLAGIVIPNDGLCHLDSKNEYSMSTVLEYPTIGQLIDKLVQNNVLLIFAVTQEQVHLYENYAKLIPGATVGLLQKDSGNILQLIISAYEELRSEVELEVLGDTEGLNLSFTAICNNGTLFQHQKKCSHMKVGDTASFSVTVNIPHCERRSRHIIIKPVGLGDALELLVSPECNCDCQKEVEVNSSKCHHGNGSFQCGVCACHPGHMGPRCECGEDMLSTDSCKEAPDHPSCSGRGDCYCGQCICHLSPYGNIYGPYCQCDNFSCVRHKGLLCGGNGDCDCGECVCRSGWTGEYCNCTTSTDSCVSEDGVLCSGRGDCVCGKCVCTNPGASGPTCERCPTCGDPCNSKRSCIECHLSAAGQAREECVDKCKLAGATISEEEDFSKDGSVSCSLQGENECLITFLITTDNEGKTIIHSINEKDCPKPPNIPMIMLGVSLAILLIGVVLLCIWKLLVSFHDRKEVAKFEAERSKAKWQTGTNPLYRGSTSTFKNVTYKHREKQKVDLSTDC
Chain of hERG (Q12809 whole entry): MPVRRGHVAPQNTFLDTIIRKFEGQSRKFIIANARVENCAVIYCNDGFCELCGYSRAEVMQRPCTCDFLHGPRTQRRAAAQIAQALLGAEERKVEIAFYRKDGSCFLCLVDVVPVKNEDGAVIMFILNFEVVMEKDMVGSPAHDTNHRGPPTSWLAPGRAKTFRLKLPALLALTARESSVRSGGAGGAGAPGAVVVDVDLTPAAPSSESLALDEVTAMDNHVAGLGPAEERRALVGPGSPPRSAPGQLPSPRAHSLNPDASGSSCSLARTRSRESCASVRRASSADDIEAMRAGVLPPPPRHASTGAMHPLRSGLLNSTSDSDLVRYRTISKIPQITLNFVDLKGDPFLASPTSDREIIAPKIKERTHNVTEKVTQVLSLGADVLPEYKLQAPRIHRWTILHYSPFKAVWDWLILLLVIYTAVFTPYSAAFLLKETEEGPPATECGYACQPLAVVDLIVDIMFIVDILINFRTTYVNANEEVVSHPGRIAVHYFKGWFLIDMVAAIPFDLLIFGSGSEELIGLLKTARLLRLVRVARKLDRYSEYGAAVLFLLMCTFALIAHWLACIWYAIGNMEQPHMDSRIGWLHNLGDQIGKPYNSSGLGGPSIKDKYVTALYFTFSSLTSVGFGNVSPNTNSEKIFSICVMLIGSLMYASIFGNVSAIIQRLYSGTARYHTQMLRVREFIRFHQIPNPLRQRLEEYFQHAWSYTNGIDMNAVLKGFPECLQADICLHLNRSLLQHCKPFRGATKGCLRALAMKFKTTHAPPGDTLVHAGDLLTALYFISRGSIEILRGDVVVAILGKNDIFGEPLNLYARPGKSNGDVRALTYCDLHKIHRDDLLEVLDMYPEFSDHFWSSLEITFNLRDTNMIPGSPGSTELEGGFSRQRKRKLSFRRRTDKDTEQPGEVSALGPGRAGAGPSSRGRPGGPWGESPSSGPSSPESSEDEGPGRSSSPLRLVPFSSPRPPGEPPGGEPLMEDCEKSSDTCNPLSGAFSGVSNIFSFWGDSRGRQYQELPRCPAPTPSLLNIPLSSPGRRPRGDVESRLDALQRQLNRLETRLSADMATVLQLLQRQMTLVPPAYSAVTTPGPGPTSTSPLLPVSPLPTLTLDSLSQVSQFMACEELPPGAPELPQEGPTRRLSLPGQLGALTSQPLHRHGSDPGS

chromatographic logD [1]	IC50 [2, 4] [nM]	IC50 ([2]; comparison table, Example 6A, read-out: αvβ6 (pIC50) (converted)) [nM]	SMILES	IC50 [3] [nM]
2.27	< 250	5.01	Cc1cccc(S(=O)(=O)N2CC(C(=O)N[C@@H](CNC(=O)CCCCc3ccc4c(n3)NCCC4)C(=O)O)C2)c1 [Example 6A]	> 31600
	< 250		Cc1ccc(S(=O)(=O)N2CC(C(=O)N[C@@H](CCN(C)CCCCc3ccc4c(n3)NCCC4)C(=O)O)C2)cc1 [Example 40, (S)-4-(Methyl(4-(5,6,7,8-tetrahydro-1,8-naphthyridin-2-yl)butyl)amino)-2-(4-methylbenzenesulfonylazetidine-3-carboxamido)butanoic acid]	
